Measured values from US12371428B2 (Exelixis, Inc., priority 2019, dated 2025).

Legend:
[1] = target: Human AXL (residues 464-885) (Homo sapiens (Human), UniProt P30530); assay: Human AXL kinase assay, HTRF KinEase (Example A-2); type: biochemical; settings: protocol of Example A-2 (other compounds)
Protocol: Kinase activity and compound inhibition were also investigated using the HTRF® KinEase assay (Cisbio Cat #62TKOPEB) per manufacturer's instructions. In short, compounds were delivered in 300 nL volumes at 10 different concentrations in DMSO (3% final) to empty 384-well assay plates (Corning cat #3824). A mixture of enzyme, […] biotynlated peptide substrate, and buffer in 10 μL volume was added. The assay was started upon the addition of ATP (at Km). The 10 μL reaction was incubated at room temperature. The reaction was stopped upon the addition of detection buffer containing streptavidin-XL665 ([…]) and TK antibody-Eu3+(5 L).
Kinase activity normalized to DMSO (100% activity) and reference compound at […] and (0% activity) was calculated using the fluorescence ratio […]. IC50 values were calculated by nonlinear regression analysis using a 4-parameter logistic curve fit in ActivityBase XE (IDBS).
The mixture was added to the pre-plated compounds. […] The reaction was incubated at room temperature for 50 min and stopped upon the addition of SA-XL665 and TK-antibody both diluted in EDTA-containing kinase detection buffer (Cisbio). The kinase activity was calculated as stated above and the IC50 values were reported.

[2] = target: AXL (phospho-AXL, Gas6-stimulated A-172 glioblastoma cells) (Homo sapiens (Human), UniProt P30530); assay: AXL autophosphorylation ELISA in A-172 cells (Example E); type: cell-based; settings: cellular activity; AXL autophosphorylation ELISA in A-172 cells; read-out: Axl IC50
Outline: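 Phospho-AXL in lysates was quantified by ELISA, normalised to DMSO (100%) and reference inhibitor (0%) controls. IC50 by 4-parameter logistic fit.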

[3] = target: Human Axl (residues H473-A894 with Q764R) (Homo sapiens (Human), UniProt P30530, Q764R); assay: Human AXL kinase assay, 33P-phosphoryl transfer radiometric (Example A-1, KinaseProfiler); type: biochemical
Protocol: The reaction was initiated by the addition of the Mg/ATP mix. […] Incorporated ^33P was measured using the Wallac Microbeta scintillation counter (Perkin Elmer).

[4] = target: Human Met (residues R974-S1390 with A1209G and V1290L) (Homo sapiens, UniProt P08581); assay: Human Met kinase assay, 33P-phosphoryl transfer radiometric (Example D-1, KinaseProfiler); type: biochemical; settings: protocol of Example D-1 (compounds 21-27, 41-47, 99, 104); read-out: c-Met IC50
Protocol: Kinase activity and compound inhibition were investigated using the ^33P-Phosphoryl transfer radiometric kinase assay, performed using the KinaseProfiler™ service of Eurofins Pharma Discovery Services UK Limited. Dose-response experiments were performed using nine compound concentrations in a 96-well microtiter plate. For each assay, all compounds were prepared to a 50× final assay concentration (50 μM) in 100% DMSO, then diluted in a half-log series, with the final top concentration at 1 μM. This working stock of the compound was added to the assay well as the first component in the reaction, followed by the remaining components as detailed in the following assay protocols below. The positive control wells (100% kinase activity) contain all components of the reaction including 2% DMSO (control for solvent effects), except the compound of interest. Blank wells contain all components of the reaction, with the reference inhibitor, staurosporine. This reference compound was used to abolish kinase activity and generated the 0% kinase activity base-line. IC50 values were calculated by nonlinear regression analysis using the sigmoidal dose-response (variable slope) curve fit on XLFit version 5.3 (ID Business Solutions).
Example D-1: Human Met (residues R974-S1390 with A1209G and V1290L, 3.4 nM) was incubated with 8 mM MOPS pH 7.0, 0.2 mM EDTA, 250 µM […] (SEQ ID NO:3), 1 mM sodium orthovanadate, 5 mM […], 10 mM magnesium acetate, and 10 μM [γ-^33P-ATP]. The reaction was initiated by the addition of the Mg/ATP mix. After incubation for 40 minutes at room temperature, the reaction was stopped by the addition of phosphoric acid to a concentration of 0.5%. A reaction aliquot of 10 μL was then spotted onto a P30 filtermat and washed four times for 4 minutes in 0.425% phosphoric acid and once in methanol prior to drying and scintillation counting. Incorporated ^33P was measured using the Wallac Microbeta scintillation counter (Perkin Elmer).

Human AXL (residues 464-885), sequence (P30530 473-894): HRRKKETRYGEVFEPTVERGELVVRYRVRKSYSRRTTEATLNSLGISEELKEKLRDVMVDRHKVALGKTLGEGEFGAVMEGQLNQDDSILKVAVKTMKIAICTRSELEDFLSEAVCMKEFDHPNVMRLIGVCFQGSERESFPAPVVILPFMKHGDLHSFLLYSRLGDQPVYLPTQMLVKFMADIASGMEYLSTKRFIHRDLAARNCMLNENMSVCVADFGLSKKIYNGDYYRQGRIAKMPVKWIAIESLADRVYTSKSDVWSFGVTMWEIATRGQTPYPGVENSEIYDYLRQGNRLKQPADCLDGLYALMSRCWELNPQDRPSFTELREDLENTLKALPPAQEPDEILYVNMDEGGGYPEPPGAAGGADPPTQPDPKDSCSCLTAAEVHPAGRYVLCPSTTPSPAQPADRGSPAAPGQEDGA
AXL (phospho-AXL, Gas6-stimulated A-172 glioblastoma cells), sequence (P30530 26-894): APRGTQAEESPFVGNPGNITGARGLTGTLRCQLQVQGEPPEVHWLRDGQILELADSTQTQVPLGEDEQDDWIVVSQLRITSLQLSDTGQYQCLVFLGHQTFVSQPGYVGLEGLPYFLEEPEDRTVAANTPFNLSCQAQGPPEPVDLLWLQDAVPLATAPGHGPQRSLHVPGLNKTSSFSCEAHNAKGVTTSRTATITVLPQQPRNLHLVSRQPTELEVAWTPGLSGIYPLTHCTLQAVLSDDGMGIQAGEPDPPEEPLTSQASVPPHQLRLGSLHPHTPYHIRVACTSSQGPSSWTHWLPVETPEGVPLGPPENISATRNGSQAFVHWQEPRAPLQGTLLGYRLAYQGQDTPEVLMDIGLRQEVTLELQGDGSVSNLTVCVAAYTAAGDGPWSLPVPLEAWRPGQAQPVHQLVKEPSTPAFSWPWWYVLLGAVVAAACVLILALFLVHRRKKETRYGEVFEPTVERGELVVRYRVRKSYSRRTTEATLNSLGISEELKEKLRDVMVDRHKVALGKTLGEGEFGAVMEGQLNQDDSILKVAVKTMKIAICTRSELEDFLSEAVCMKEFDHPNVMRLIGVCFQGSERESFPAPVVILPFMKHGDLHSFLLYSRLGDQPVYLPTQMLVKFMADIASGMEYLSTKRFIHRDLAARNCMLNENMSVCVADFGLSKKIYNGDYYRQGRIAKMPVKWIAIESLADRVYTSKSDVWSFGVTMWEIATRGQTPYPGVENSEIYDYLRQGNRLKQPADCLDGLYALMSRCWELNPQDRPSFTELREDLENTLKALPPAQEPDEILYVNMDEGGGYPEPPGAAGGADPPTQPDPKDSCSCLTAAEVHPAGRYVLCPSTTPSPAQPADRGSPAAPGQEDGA
Human Axl (residues H473-A894 with Q764R), sequence (P30530 473-894 Q764R): as the sequence (P30530 473-894) above, with Q292R counted along it
Human Met (residues R974-S1390 with A1209G and V1290L), sequence (P08581 25-1390 limits assumed, stated change not applied): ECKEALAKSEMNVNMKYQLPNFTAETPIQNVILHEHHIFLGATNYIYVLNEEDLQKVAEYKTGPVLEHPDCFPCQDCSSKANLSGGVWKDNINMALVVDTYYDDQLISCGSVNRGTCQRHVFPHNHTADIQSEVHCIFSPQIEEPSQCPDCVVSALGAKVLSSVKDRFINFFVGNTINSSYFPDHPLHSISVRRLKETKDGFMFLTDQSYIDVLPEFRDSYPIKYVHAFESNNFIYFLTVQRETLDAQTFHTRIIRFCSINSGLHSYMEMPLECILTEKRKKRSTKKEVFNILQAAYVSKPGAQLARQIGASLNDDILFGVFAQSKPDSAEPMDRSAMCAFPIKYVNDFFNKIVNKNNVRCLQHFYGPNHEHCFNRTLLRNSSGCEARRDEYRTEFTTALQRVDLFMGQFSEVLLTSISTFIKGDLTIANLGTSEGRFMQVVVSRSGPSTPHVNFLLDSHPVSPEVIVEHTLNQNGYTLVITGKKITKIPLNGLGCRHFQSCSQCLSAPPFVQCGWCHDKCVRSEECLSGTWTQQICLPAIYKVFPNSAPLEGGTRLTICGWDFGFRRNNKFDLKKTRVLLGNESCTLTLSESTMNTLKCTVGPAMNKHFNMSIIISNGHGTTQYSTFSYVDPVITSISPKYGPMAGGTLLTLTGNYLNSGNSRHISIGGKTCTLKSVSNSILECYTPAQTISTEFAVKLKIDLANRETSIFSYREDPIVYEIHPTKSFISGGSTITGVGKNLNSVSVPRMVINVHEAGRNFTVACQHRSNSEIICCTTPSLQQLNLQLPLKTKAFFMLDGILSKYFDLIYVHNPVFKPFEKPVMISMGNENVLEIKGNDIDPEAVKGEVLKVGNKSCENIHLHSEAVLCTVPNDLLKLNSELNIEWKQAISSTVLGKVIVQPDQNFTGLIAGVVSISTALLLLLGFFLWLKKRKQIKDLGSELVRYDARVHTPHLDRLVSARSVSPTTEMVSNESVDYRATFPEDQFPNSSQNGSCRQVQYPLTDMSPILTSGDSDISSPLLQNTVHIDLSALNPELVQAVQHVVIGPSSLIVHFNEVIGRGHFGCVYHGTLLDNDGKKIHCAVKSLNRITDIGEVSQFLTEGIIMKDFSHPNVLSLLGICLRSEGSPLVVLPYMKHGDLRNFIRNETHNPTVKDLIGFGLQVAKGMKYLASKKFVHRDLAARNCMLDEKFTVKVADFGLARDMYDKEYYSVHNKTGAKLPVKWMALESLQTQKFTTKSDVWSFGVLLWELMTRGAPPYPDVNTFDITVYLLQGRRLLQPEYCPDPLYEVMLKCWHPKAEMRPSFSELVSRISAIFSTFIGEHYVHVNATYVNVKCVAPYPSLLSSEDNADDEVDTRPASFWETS

IC50 [1] [nM]	IC50 [2] [nM]	IC50 [3] [nM]	IC50 [4] [nM]	SMILES
< 100	< 100	–	–	COc1cnc2c(Oc3ccc(NC(=O)c4cn(C)c(C)c(-c5ccc(F)cc5C)c4=O)cc3)ccnc2c1 [Compound 187, 5-(4-Fluoro-2-methylphenyl)-N-[4-[(7-methoxy-1,5-naphthyridin-4-yl)oxy]phenyl]-1,6-dimethyl-4-oxopyridine-3-carboxamide]
< 100	< 100	–	–	COc1cc2ncnc(Oc3ccc(NC(=O)c4c5n(cc(-c6ccc(F)cc6)c4=O)CCC5)cc3F)c2cc1OC [Compound 406, N-[4-(6,7-dimethoxyquinazolin-4-yl)oxy-3-fluorophenyl]-6-(4-fluorophenyl)-7-oxo-2,3-dihydro-1H-indolizine-8-carboxamide]
< 100	< 100	–	–	COc1cc2nccc(Oc3ccc(NC(=O)c4ccc(C)n(-c5ccc(F)cc5)c4=O)cc3F)c2nc1OC [Compound 254, N-[4-[(6,7-Dimethoxy-1,5-naphthyridin-4-yl)oxy]-3-fluorophenyl]-1-(4-fluorophenyl)-6-methyl-2-oxopyridine-3-carboxamide]
–	< 100	> 300	> 300	COc1cc2nccc(Oc3ccc(NC(=O)c4c[nH]c(=S)n(-c5ccc(F)cc5)c4=O)cc3F)c2nc1OC [Compound 104, N-[4-[(6,7-Dimethoxy-1,5-naphthyridin-4-yl)oxy]-3-fluorophenyl]-3-(4-fluorophenyl)-4-oxo-2-sulfanylidene-1H-pyrimidine-5-carboxamide]
